Measurements reported in article PMC12019328, “Discovery of an ApoE4-targeted small-molecule SirT1 enhancer for the treatment of Alzheimer’s disease” (Scientific Reports, 2025).

Experiments:
PRMT5 mRNA = experiment: Hippocampal PRMT5 mRNA in ApoE4-TR:5xFAD mice; assay type: in vivo; conditions: 20 mg/Kg BID, 56 days, vs vehicle
Description: The active (-) enantiomer, DDL-218, underwent efficacy testing in ApoE4-TR:5xFAD mice[27] that were 6-7.5 months old at the start of treatment. ApoE4-TR:5xFAD male and female mice received either 20 mg/Kg DDL-218 BID (~ 8- to10-hour interval; total daily dose of 40 mkd) on weekdays and a single 40 mg/Kg dose on weekends (n = 12) or vehicle-only (n = 11); 8 C57BL/6 mice received vehicle-only as behavioral controls. Dosing was by the oral route and by oral feeding using a pipette as previously described, not gavage, as it is safer for repeated oral dosing than gavage. The dose of 20 mg/kg BID (40 mkd) was selected based on findings from PK analysis and was the highest feasible in the formulation used for oral feeding (compound is first solubilized in water, then mixed strawberry syrup diluted in water, for a final vehicle that is 25% syrup and 75% water). […]
Total RNA was isolated from cells or brain tissue (Qiagen RNEasy kit). Total RNA (0.5–1.0 µg) mRNA was then converted to cDNA (SuperScript™ III First-Strand Synthesis SuperMix kit; Thermo Fisher), and gene mRNA levels were measured using a gene-specific qRT-PCR Taqman assays (Thermo Fisher). Gene mRNA levels were normalized to GAPDH mRNA levels measured either in the same cDNA sample or in the same qPCR reaction using multiplexing of gene-of-interest/VIC and GAPDH/FAM, normalized by the delta-delta-Ct method.

[1] = Liver microsome stability; assay type: in vitro ADME; conditions: pH 7.4; human liver microsomes 0.5 mg/mL, NADPH, 37 °C; read-out: Microsomal stability t1/2
Description: page 6: A03 DDL-214 Figure S3B. SirT1 protein levels in N2a-E4 cells after A03 and DDL-214 treatment. Compound treatment was done at 5 and 50 µM. SirT1 levels were measured by AlphaLISA followed and normalized to protein concentration DDL-218 Physiochemical Properties Physiochemical properties of DDL-218 are shown in Table S2. Brain Tissue Binding [fu,bound (%)] Brain tissue was homogenized in PBS (pH 7.4) (1: 3 weight(mg)/volume(µL)) and the protein concentration of was determined using the Micro BCA™ Protein Assay Kit (Thermo Fisher Scientific, Cat#23235). Brain homogenate was diluted to 20 mg/mL in PBS (pH 7.4) and added to Slide-A-Lyzer™ MINI Dialysis Devices, 10K MWCO dialysis cups (Thermo Fisher Scientific, Cat#PI88401) in 48-well plate containing PBS (500 µL; pH 7.4). 1 µL of 1 mM compound was added to the brain homogenate (Final Concentration: 2 µM compound, 0.5% DMSO) and incubated on a rocker for 4.5 hours at 37 °C. […] The % of the unbound drug (fu,bound) was calculated using the following equation: fu,bound = [normalized peak area in buffer side / normalized peak area in brain side] x 100 Liver Microsome Stability [t1/2 (min)] […] An aliquot (50 µL) of each supernatant was analyzed by LC-MS/MS. […] Aliquots (50 µL) of supernatant were analyzed by LC-MS/MS to create the standard curve. […]

With `CC(N)C(=O)OC(C)(C)Cc1ccncc1` (centres unmarked) [DDL-218] the “hippocampal PRMT5 mRNA” value (PRMT5 mRNA) was “significantly increased” and the half-life [1] was over 2.33 h.
